A value given as a limit tells only on which side of the number the result lay.

GPR40, sequence (O14842 whole entry): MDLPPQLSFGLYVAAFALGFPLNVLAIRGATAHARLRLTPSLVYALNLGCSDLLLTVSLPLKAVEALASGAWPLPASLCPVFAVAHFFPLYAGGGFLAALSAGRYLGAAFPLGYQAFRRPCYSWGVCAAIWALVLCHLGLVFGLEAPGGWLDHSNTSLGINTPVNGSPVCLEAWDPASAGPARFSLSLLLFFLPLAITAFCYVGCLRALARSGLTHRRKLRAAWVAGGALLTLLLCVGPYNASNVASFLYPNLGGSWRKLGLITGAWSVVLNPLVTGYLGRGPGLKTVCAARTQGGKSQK

The first experiment concerns the target GPR40 (Homo sapiens (Human), UniProt O14842). Put plainly: GPR40 protein activity by intracellular calcium concentration (Fluo-4, Flexstation 3) in transfected HEK-293 cells. Conditions: HEK-293 cells transfected with human GPR40, intracellular calcium; read-out: EC50. It is filed as cell-based. As for the experimental part: The GPR40 protein activity according to the novel 3-(4-(benzyloxy)phenyl)hex-4-inoic acid derivative of the present invention was measured by investigating the changes in intracellular calcium concentration affected by the GRP40 activation. First, HEK-293 cells were transfected with human GPR40 DNA (Origene, RC218370) by using Fugene HD (Promega, E2311). […] 24 hours later, the cell culture medium was replaced with Dulbecco's Modified Eagle Medium (DMEM, 50 μl/well) supplemented with 1% fetal bovine serum (FBS). To measure the calcium concentration, 50 μl of Fluo-4 reagent (Invitrogen, F10471) was added to each well, followed by culture in a 37° C. incubator for 2 hours. […] 2 hours after the culture began, those prepared samples were automatically injected to the cells by using Flexstation 3 (Molecular Devices). Then, intracellular calcium concentration was measured for 120 seconds by using SoftMax® Pro software. At this time, dimethylsulfoxide (DMSO) was injected to the cells for the non-treated group, followed by measuring the calcium concentration therein. The GPR40 protein activity was calculated by the below mathematical formula 1 with the results of calcium concentration measurement. GPR40 activity=(intracellular calcium concentration increased by the sample)/(intracellular calcium concentration of the non-treated group)×100 [Mathematical Formula 1]
As for `CC#C[C@@H](CC(=O)O)c1ccc(OCc2ccc(CN3CCN(c4ccc(O)cc4)CC3)cc2)cc1` [Example 35, (S)-3-(4-(4-((4-(4-hydroxyphenyl)piperazine-1-yl)methyl)benzyloxy)phenyl)hex-4-ynoic acid], the EC50 is more than 0.3 µM.

As for `CC#C[C@H](CC(=O)O)c1ccc(OCc2cccc(C3=CCC4(CC3)OCCO4)c2)cc1` [Example 8, (3R)-3-(4-(3-(1,4-dioxaspiro[4,5]dec-7-en-8-yl)benzyloxy)phenyl)hex-4-ynoic acid], the EC50 is more than 0.3 µM.

Turning to `CC#CC(CC(=O)O)c1ccc(OCc2ccc(CN3CCc4cc(OC)ccc4C3)cc2)cc1` (stereo not drawn) [Example 16, 3-(4-(4-((6-methoxy-3,4-dihydroisoquinoline-2(1H)-yl)methyl)benzyloxy)phenyl)hex-4-ynoic acid], the EC50 was more than 0.3 µM.

`CC#CC(CC(=O)O)c1ccc(OCc2ccc(CN3CCN(c4ccc(F)cc4)CC3)cc2)cc1` (stereo not drawn) [Example 18, 3-(4-(4-((4-(4-fluorophenyl)piperazine-1-yl)methyl)benzyloxy)phenyl)hex-4-ynoic acid]: the EC50 was more than 0.3 µM.

With `CC#C[C@@H](CC(=O)O)c1ccc(OCc2ccc(CN3CCCc4ccccc43)cc2)cc1` [Example 41, sodium (S)-3-(4-(4-((3,4-dihydroquinoline-1(2H)-yl)methyl)benzyloxy)phenyl)hex-4-ynoate], the EC50 was more than 0.3 µM.

`CC#CC(CC(=O)O)c1ccc(OCc2ccc(CN3CCN(c4ccc(OCCCS(C)(=O)=O)cc4)CC3)cc2)cc1` (stereo not drawn) [Example 20, 3-(4-(4-((4-(4-(3-(methylsulfonyl)propoxy)phenyl)piperazine-1-yl)methyl)benzyloxy)phenyl)hex-4-ynoic acid]: the EC50 is more than 0.3 µM.

Regarding `CC#C[C@@H](CC(=O)O)c1ccc(OCc2ccc(C(C)N3CCc4ccccc4C3)cc2)cc1` (stereo partly drawn) [Example 34, (3S)-3-(4-(4-(1-(3,4-dihydroisoquinoline-2(1H)-yl)ethyl)benzyloxy)phenyl)hex-4-ynoic acid], the EC50 is more than 0.3 µM.

In the case of `CC#C[C@@H](CC(=O)O)c1ccc(OCc2ccc(CN3CCC(c4ccccc4)C3)cc2)cc1` (stereo partly drawn) [Example 46, (3S)-3-(4-(4-((3-phenylpyrrolidine-1-yl)methyl)benzyloxy)phenyl)hex-4-ynoic acid], the EC50 is more than 0.3 µM.

Consider `CC#C[C@@H](CC(=O)O)c1ccc(OCc2ccc(CCN3CCc4ccccc4C3)cc2)cc1` [Example 50, (S)-3-(4-(4-(2-(3,4-dihydroisoquinoline-2(1H)-yl)ethyl)benzyloxy)phenyl)hex-4-ynoic acid], for which the EC50 was more than 0.3 µM.

Consider `CC#C[C@@H](CC(=O)O)c1ccc(OCc2ccc(CCN3CCc4cc(OC)ccc4C3)cc2)cc1` [Example 48, (S)-3-(4-(4-(2-(6-methoxy-3,4-dihydroisoquinoline-2(1H)-yl)ethyl)benzyloxy)phenyl)hex-4-ynoic acid], for which the EC50 is more than 0.3 µM.

As for `CC#C[C@@H](CC(=O)O)c1ccc(OCc2ccc(CN3CCN(c4ccc(C#N)cn4)CC3)cc2)cc1` [Example 45, (S)-3-(4-(4-((4-(5-cyanopyridine-2-yl)piperazine-1-yl)methyl)benzyloxy)phenyl)hex-4-ynoic acid], the EC50 is more than 0.3 µM.

Consider `CC#C[C@@H](CC(=O)O)c1ccc(OCc2ccc(CN3CCN(c4ncc(CCC)cn4)CC3)cc2)cc1` [Example 44, (S)-3-(4-(4-((4-(5-propylpyrimidine-2-yl)piperazine-1-yl)methyl)benzyloxy)phenyl)hex-4-ynoic acid], for which the EC50 is more than 0.3 µM.

Turning to `CC#C[C@@H](CC(=O)O)c1ccc(OCc2ccc(CN3CCN(c4ccc(F)cc4)CC3)cc2)cc1` [Example 23, (S)-3-(4-(4-((4-(4-fluorophenyl)piperazine-1-yl)methyl)benzyloxy)phenyl)hex-4-ynoic acid], the EC50 lay in the range of 0.2 to 0.3 µM.

In the case of `CC#C[C@@H](CC(=O)O)c1ccc(OCc2ccc(CN3Cc4ccccc4C3)cc2)cc1` [Example 27, (S)-3-(4-(4-(isoindoline-2-ylmethyl)benzyloxy)phenyl)hex-4-ynoic acid], the EC50 was less than 0.2 µM.

Still in this experiment, the particulars now being: HEK-293 cells transfected with human GPR40, intracellular calcium; values in text; read-out: EC50, concentration promoting activation of GPR40 protein by 50%.
Regarding `CC#C[C@@H](CC(=O)O)c1ccc(OCc2ccc(CN3Cc4ccccc4C3)cc2)cc1` [Example 27, (S)-3-(4-(4-(isoindoline-2-ylmethyl)benzyloxy)phenyl)hex-4-ynoic acid], the EC50 was less than 0.2 µM.

The values are drawn from patent US9969723B2, “3-(4-(benzyloxy)phenyl)hex-4-ynoic acid derivative, method of preparing same and pharmaceutical composition for preventing and treating metabolic disease including same as effective ingredient” (HYUNDAI PHARM CO., LTD, priority 2014, dated 2018).
